Measured values: US9481676B2, “Azepino[4,5-B]indoles and methods of use” (Medivation Technologies, Inc., priority 2008, dated 2016)

Biological target: T1, human recombinant adrenergic α2B receptor (Homo sapiens, UniProt P18089)
T1 construct: expressed in transfected cells; host or cells: CHO-K1 cells
T1 sequence (P18089 1-450): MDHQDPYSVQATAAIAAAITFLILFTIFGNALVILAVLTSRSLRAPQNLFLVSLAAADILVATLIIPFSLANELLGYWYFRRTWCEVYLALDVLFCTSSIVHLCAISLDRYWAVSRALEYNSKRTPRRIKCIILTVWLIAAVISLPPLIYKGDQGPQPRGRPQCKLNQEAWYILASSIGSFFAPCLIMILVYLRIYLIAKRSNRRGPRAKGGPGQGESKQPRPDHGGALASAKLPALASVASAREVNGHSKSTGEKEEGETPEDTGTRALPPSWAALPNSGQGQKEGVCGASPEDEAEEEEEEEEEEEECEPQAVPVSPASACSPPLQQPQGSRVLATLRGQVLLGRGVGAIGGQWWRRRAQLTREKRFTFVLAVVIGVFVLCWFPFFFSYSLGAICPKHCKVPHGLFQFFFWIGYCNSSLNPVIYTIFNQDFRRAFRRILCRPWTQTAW
Assay: Adrenergic alpha2B radioligand binding ([3H]Rauwolscine)
Details: compound at 1 μM; read-out: Adrenergic (1 μM) α2B, percent inhibition of specific binding
Method: To evaluate in radioligand binding assays the activity of compounds of the invention, human recombinant adrenergic α2B receptor expressed in Chinese hamster ovary (CHO-K1) cells (Uhlen S et al. Eur J. Pharmacol. 343(1):93, 1998) in a modified Tris-HCl buffer (50 mM Tris-HCl, pH 7.4, 12.5 mM MgCl2, 1 mM EDTA, 0.2% BSA) was used. Compounds of the invention were incubated with 2.5 nM [^3H]Rauwolscine for 60 min. at 25° C. Non-specific binding was estimated in the presence of 10 μM Prozosin. Receptor proteins were filtered and washed, the filters were then counted to determine [^3H]Rauwolscine specifically bound. Compounds were screened at 1 μM or lower, using 1% DMSO as vehicle. Biochemical assay results are presented as the percent inhibition of specific binding in Table 5.

SMILES | inhibition at 1 µM [%]
CN1CCc2c(n(CCc3ccccc3Cl)c3ccc(Cl)cc23)CC1 [Compound No. 29, 6-(2-chlorophenethyl)-9-chloro-1,2,3,4,5,6-hexahydro-3-methylazepino[4,5-b]indole] | 101
CN1CCc2c(n(CC(C)(O)c3ccc(Cl)cc3)c3ccc(Cl)cc23)CC1 (stereo not shown) [Compound No. 12, 1-(9-chloro-2,3,4,5-tetrahydro-3-methylazepino[4,5-b]indol-6(1H)-yl)-2-(4-chlorophenyl)propan-2-ol] | 103
CN1CCc2c(n(CC(O)c3ccncc3)c3ccc(Cl)cc23)CC1 (stereo not shown) [Compound No. 42, 2-(9-chloro-2,3,4,5-tetrahydro-3-methylazepino[4,5-b]indol-6(1H)-yl)-1-(pyridin-4-yl)ethanol] | 107
CN1CCc2c(n(/C=C/c3ccc(F)c(F)c3)c3ccc(Cl)cc23)CC1 [Compound No. 236, (E)-9-chloro-6-(3,4-difluorostyryl)-3-methyl-1,2,3,4,5,6-hexahydroazepino[4,5-b]indole] | 103
Cc1ccc2c(c1)c1c(n2CCc2ccccc2)CCN(C)CC1 [Compound No. 62, 1,2,3,4,5,6-hexahydro-3,9-dimethyl-6-phenethylazepino[4,5-b]indole] | 98
Cc1ccc(C(O)Cn2c3c(c4cc(C)ccc42)CCN(C)CC3)cc1 (stereo not shown) [Compound No. 27, 2-(2,3,4,5-tetrahydro-3,9-dimethylazepino[4,5-b]indol-6(1H)-yl)-1-p-tolylethanol] | 100
Cc1ccc2c(c1)c1c(n2CC(=O)OC2CCCC2)CCN(C)CC1 [Compound No. 55, Cyclopentyl-2-(2,3,4,5-tetrahydro-3,9-dimethylazepino[4,5-b]indol-6(1H)-yl)acetate] | 7
Cc1ccc(C(O)Cn2c3c(c4cc(Cl)ccc42)CCN(C)CC3)cc1 (stereo not shown) [Compound No. 26, 2-(9-chloro-2,3,4,5-tetrahydro-3-methylazepino[4,5-b]indol-6(1H)-yl)-1-p-tolylethanol] | 104
C/C(=C\n1c2c(c3cc(C)ccc31)CCN(C)CC2)c1ccc(Cl)cc1 [Compound No. 33, 6-((E)-2-(4-chlorophenyl)prop-1-enyl)-1,2,3,4,5,6-hexahydro-3,9-dimethylazepino[4,5-b]indole] | 103
Cc1ccc2c(c1)c1c(n2CCc2cncc(Cl)c2)CCN(C)CC1 [Compound No. 4, 6-(2-(5-chloropyridin-3-yl)ethyl)-1,2,3,4,5,6-hexahydro-3,9-dimethylazepino[4,5-b]indole] | 93
C/C(=C\n1c2c(c3cc(Cl)ccc31)CCN(C)CC2)c1ccc(Cl)cc1 [Compound No. 36, 9-chloro-6-((E)-2-(4-chlorophenyl)prop-1-enyl)-1,2,3,4,5,6-hexahydro-3-methylazepino[4,5-b]indole] | 101
CN1CCc2c(n(CCc3cncc(Cl)c3)c3ccc(Cl)cc23)CC1 [Compound No. 10, 9-chloro-6-(2-(5-chloropyridin-3-yl)ethyl)-1,2,3,4,5,6-hexahydro-3-methylazepino[4,5-b]indole] | 101
CN1CCc2c(n(CC(O)c3ccc(F)c(F)c3)c3ccc(Cl)cc23)CC1 (stereo not shown) [Compound No. 58, 2-(9-chloro-2,3,4,5-tetrahydro-3-methylazepino[4,5-b]indol-6(1H)-yl)-1-(3,4-difluorophenyl)ethanol] | 10
CN1CCc2c(n(CC(=O)N3CCCCC3)c3ccc(Cl)cc23)CC1 [Compound No. 57, 2-(9-chloro-2,3,4,5-tetrahydro-3-methylazepino[4,5-b]indol-6(1H)-yl)-1-(piperidin-1-yl)ethanone] | 87
COc1ccc(C(O)Cn2c3c(c4cc(C)ccc42)CCN(C)CC3)cc1F (stereo not shown) [Compound No. 68, 1-(3-fluoro-4-methoxyphenyl)-2-(2,3,4,5-tetrahydro-3,9-dimethylazepino[4,5-b]indol-6(1H)-yl)ethanol] | 100
Cc1ccc2c(c1)c1c(n2/C=C/c2ccccc2)CCN(C)CC1 [Compound No. 229, (E)-3,9-dimethyl-6-styryl-1,2,3,4,5,6-hexahydroazepino[4,5-b]indole] | 103
CN1CCc2c(n(CC(O)c3cccnc3)c3ccc(Cl)cc23)CC1 (stereo not shown) [Compound No. 18, 2-(9-chloro-2,3,4,5-tetrahydro-3-methylazepino[4,5-b]indol-6(1H)-yl)-1-(pyridin-3-yl)ethanol] | 98

SMILES | inhibition at 1 µM [%]
CN1CCc2c(n(CCc3ccccc3F)c3ccccc23)CC1 [Compound No. 237, 6-(2-fluorophenethyl)-3-methyl-1,2,3,4,5,6-hexahydroazepino[4,5-b]indole] | 93
Cc1ccc2c(c1)c1c(n2CC(O)c2ccc(C)nc2)CCN(C)CC1 (stereo not shown) [Compound No. 23, 2-(2,3,4,5-tetrahydro-3,9-dimethylazepino[4,5-b]indol-6(1H)-yl)-1-(6-methylpyridin-3-yl)ethanol] | 25
CN1CCc2c(n(CCc3ccncc3)c3ccc(Cl)cc23)CC1 [Compound No. 5, 9-chloro-1,2,3,4,5,6-hexahydro-3-methyl-6-(2-(pyridin-4-yl)ethyl)azepino[4,5-b]indole] | 100
Cc1ccc2c(c1)c1c(n2/C=C/c2ccccc2F)CCN(C)CC1 [Compound No. 233, (E)-6-(2-fluorostyryl)-3,9-dimethyl-1,2,3,4,5,6-hexahydroazepino[4,5-b]indole] | 100
Cc1ccc2c(c1)c1c(n2CC(O)c2ccccc2F)CCN(C)CC1 (stereo not shown) [Compound No. 41, 1-(2-fluorophenyl)-2-(2,3,4,5-tetrahydro-3,9-dimethylazepino[4,5-b]indol-6(1H)-yl)ethanol] | 104
CC(C)NC(=O)Cn1c2c(c3cc(Cl)ccc31)CCN(C)CC2 [Compound No. 31, 2-(9-chloro-2,3,4,5-tetrahydro-3-methylazepino[4,5-b]indol-6(1H)-yl)-N-isopropylacetamide] | 23
Cc1ccc(CCn2c3c(c4cc(Cl)ccc42)CCN(C)CC3)cc1 [Compound No. 46, 9-chloro-3-methyl-6-(4-methylphenethyl)-1,2,3,4,5,6-hexahydroazepino[4,5-b]indole] | 107
Cc1ccc2c(c1)c1c(n2CC(O)c2ccc(Cl)cc2)CCN(C)CC1 (stereo not shown) [Compound No. 17, 1-(4-chlorophenyl)-2-(2,3,4,5-tetrahydro-3,9-dimethylazepino[4,5-b]indol-6(1H)-yl)ethanol] | 99
CN1CCc2c(n(CCc3ccc(C(=O)O)nc3)c3ccc(Cl)cc23)CC1 [Compound No. 21, 5-(2-(9-chloro-2,3,4,5-tetrahydro-3-methylazepino[4,5-b]indol-6(1H)-yl)ethyl)pyridine-2-carboxylic acid] | 6
Cc1ccc2c(c1)c1c(n2CC(O)c2ccccc2)CCN(C)CC1 (stereo not shown) [Compound No. 25, 2-(2,3,4,5-tetrahydro-3,9-dimethylazepino[4,5-b]indol-6(1H)-yl)-1-phenylethanol] | 104
C/C(=C\n1c2c(c3cc(Cl)ccc31)CCN(C)CC2)c1ccc(Cl)cc1Cl [Compound No. 239, (E)-9-chloro-6-(2-(2,4-dichlorophenyl)prop-1-enyl)-3-methyl-1,2,3,4,5,6-hexahydroazepino[4,5-b]indole] | 107
Cc1ccc2c(c1)c1c(n2CC(O)c2ccc(F)cc2)CCN(C)CC1 (stereo not shown) [Compound No. 52, 1-(4-fluorophenyl)-2-(2,3,4,5-tetrahydro-3,9-dimethylazepino[4,5-b]indol-6(1H)-yl)ethanol] | 103
CN1CCc2c(n(CC(O)c3ccccc3)c3ccc(Cl)cc23)CC1 (stereo not shown) [Compound No. 24, 2-(9-chloro-2,3,4,5-tetrahydro-3-methylazepino[4,5-b]indol-6(1H)-yl)-1-phenylethanol] | 99
Cc1ccc2c(c1)c1c(n2CC(C)(O)c2ccc(F)cc2)CCN(C)CC1 (stereo not shown) [Compound No. 14, 2-(4-fluorophenyl)-1-(2,3,4,5-tetrahydro-3,9-dimethylazepino[4,5-b]indol-6(1H)-yl)propan-2-ol] | 100
CN1CCc2c(n(/C=C/c3ccc(F)cc3)c3ccc(Cl)cc23)CC1 [Compound No. 234, (E)-9-chloro-6-(4-fluorostyryl)-3-methyl-1,2,3,4,5,6-hexahydroazepino[4,5-b]indole] | 100
CN1CCc2c(n(CCc3ccccc3F)c3ccc(Cl)cc23)CC1 [Compound No. 61, 6-(2-fluorophenethyl)-9-chloro-1,2,3,4,5,6-hexahydro-3-methylazepino[4,5-b]indole] | 103
C/C(=C\n1c2c(c3cc(C)ccc31)CCN(C)CC2)c1ccc(Cl)cc1Cl [Compound No. 238, (E)-6-(2-(2,4-dichlorophenyl)prop-1-enyl)-3,9-dimethyl-1,2,3,4,5,6-hexahydroazepino[4,5-b]indole] | 103
